Experimental data: PubChem BioAssay AID2060887 (Molecular Pharmacology Branch, DTP, NCI, 2025)

System: 782815-120-R-J1-PDC complex spheroid viability
Test: Anticancer human tumor 782815-120-R-J1-PDC patient-derived colon adenocarcinoma cell line growth inhibition [RAS]
Conditions: for IC50: curve of first compound; for viability, T/C: stronger effect = lower value
Method in brief: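 Tumour cells grown as complex spheroids with HUVEC endothelial cells and mesenchymal stem cells, treated with RAS pathway inhibitor combinations. Each agent spans half-log steps from near clinical Cmax, or 10 microM where Cmax is unknown.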

[1] = second compound 0.000949 µM, first compound 0.00316 µM
[2] = second compound 0.000949 µM, first compound 0.01 µM
[3] = second compound 0.000949 µM, first compound 0.0316 µM
[4] = second compound 0.000949 µM, first compound 0.1 µM
[5] = second compound 0.000949 µM, first compound 0.316 µM
[6] = second compound 0.000949 µM, first compound 1 µM
[7] = second compound 0.003 µM, first compound 0.00316 µM
[8] = second compound 0.003 µM, first compound 0.01 µM
[9] = second compound 0.003 µM, first compound 0.0316 µM
[10] = second compound 0.003 µM, first compound 0.1 µM
[11] = second compound 0.003 µM, first compound 0.316 µM
[12] = second compound 0.003 µM, first compound 1 µM
[13] = second compound 0.00949 µM, first compound 0.00316 µM
[14] = second compound 0.00949 µM, first compound 0.01 µM
[15] = second compound 0.00949 µM, first compound 0.0316 µM
[16] = second compound 0.00949 µM, first compound 0.1 µM
[17] = second compound 0.00949 µM, first compound 0.316 µM
[18] = second compound 0.00949 µM, first compound 1 µM
[19] = second compound 0.03 µM, first compound 0.00316 µM
[20] = second compound 0.03 µM, first compound 0.01 µM
[21] = second compound 0.03 µM, first compound 0.0316 µM
[22] = second compound 0.03 µM, first compound 0.1 µM
[23] = second compound 0.03 µM, first compound 0.316 µM
[24] = second compound 0.03 µM, first compound 1 µM
[25] = second compound 0.0949 µM, first compound 0.00316 µM
[26] = second compound 0.0949 µM, first compound 0.01 µM
[27] = second compound 0.0949 µM, first compound 0.0316 µM
[28] = second compound 0.0949 µM, first compound 0.1 µM
[29] = second compound 0.0949 µM, first compound 0.316 µM
[30] = second compound 0.0949 µM, first compound 1 µM
[31] = second compound 0.3 µM, first compound 0.00316 µM
[32] = second compound 0.3 µM, first compound 0.01 µM
[33] = second compound 0.3 µM, first compound 0.0316 µM
[34] = second compound 0.3 µM, first compound 0.1 µM
[35] = second compound 0.3 µM, first compound 0.316 µM
[36] = second compound 0.3 µM, first compound 1 µM
[37] = second compound 0.000949 µM, first compound 3.16 µM
[38] = second compound 0.000949 µM, first compound 10 µM
[39] = second compound 0.003 µM, first compound 3.16 µM
[40] = second compound 0.003 µM, first compound 10 µM
[41] = second compound 0.00949 µM, first compound 3.16 µM
[42] = second compound 0.00949 µM, first compound 10 µM
[43] = second compound 0.03 µM, first compound 3.16 µM
[44] = second compound 0.03 µM, first compound 10 µM
[45] = second compound 0.0949 µM, first compound 3.16 µM
[46] = second compound 0.0949 µM, first compound 10 µM
[47] = second compound 0.3 µM, first compound 3.16 µM
[48] = second compound 0.3 µM, first compound 10 µM
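Also: spheroids exposed to compounds for 7 days before reading.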
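For viability, T/C in this document: 100% = DMSO vehicle control viability.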

C=CC(=O)Nc1cc(Nc2nccc(-c3cn(C)c4ccccc34)n2)c(OC)cc1N(C)CCN(C)C + CCn1c(-c2cc(N3CCN(C)CC3)cnc2C(C)OC)c2c3cc(ccc31)-c1csc(n1)CC(NC(=O)C1CC1C)C(=O)N1CCCC(N1)C(=O)OCC(C)(C)C2
IC50 (second compound 0.000949 µM): > 1000 nM
IC50 (second compound 0.003 µM): > 1000 nM
IC50 (second compound 0.00949 µM): < 3.16 nM
IC50 (second compound 0.03 µM): < 3.16 nM
IC50 (second compound 0.0949 µM): < 3.16 nM
IC50 (second compound 0.3 µM): < 3.16 nM
viability, T/C [1]: 71.5%
viability, T/C [2]: 71.2%
viability, T/C [3]: 79%
viability, T/C [4]: 74%
viability, T/C [5]: 76.4%
viability, T/C [6]: 68.6%
viability, T/C [7]: 59.3%
viability, T/C [8]: 60.3%
viability, T/C [9]: 55.6%
viability, T/C [10]: 55.7%
viability, T/C [11]: 54.7%
viability, T/C [12]: 47.9%
viability, T/C [13]: 31.2%
viability, T/C [14]: 35.6%
viability, T/C [15]: 34.2%
viability, T/C [16]: 29.6%
viability, T/C [17]: 28.3%
viability, T/C [18]: 27.8%
viability, T/C [19]: 17.8%
viability, T/C [20]: 23.9%
viability, T/C [21]: 18.6%
viability, T/C [22]: 17.5%
viability, T/C [23]: 19.7%
viability, T/C [24]: 18.2%
viability, T/C [25]: 16.1%
viability, T/C [26]: 16.6%
viability, T/C [27]: 14.8%
viability, T/C [28]: 16.2%
viability, T/C [29]: 15.1%
viability, T/C [30]: 19.5%
viability, T/C [31]: 17.5%
viability, T/C [32]: 16.6%
viability, T/C [33]: 16.8%
viability, T/C [34]: 12.5%
viability, T/C [35]: 16.3%
viability, T/C [36]: 18.8%

CC(C)NCC(C(=O)N1CCN(c2ncnc3c2C(C)CC3O)CC1)c1ccc(Cl)cc1 (stereo not drawn) + CCn1c(-c2cc(N3CCN(C)CC3)cnc2C(C)OC)c2c3cc(ccc31)-c1csc(n1)CC(NC(=O)C1CC1C)C(=O)N1CCCC(N1)C(=O)OCC(C)(C)C2
IC50 (second compound 0.000949 µM): > 10000 nM
IC50 (second compound 0.003 µM): > 10000 nM
IC50 (second compound 0.00949 µM): < 31.6 nM
IC50 (second compound 0.03 µM): < 31.6 nM
IC50 (second compound 0.0949 µM): < 31.6 nM
IC50 (second compound 0.3 µM): < 31.6 nM
viability, T/C [3]: 79.6%
viability, T/C [4]: 77.7%
viability, T/C [5]: 74.5%
viability, T/C [6]: 71.6%
viability, T/C [37]: 77.4%
viability, T/C [38]: 87.9%
viability, T/C [9]: 57.2%
viability, T/C [10]: 54.8%
viability, T/C [11]: 61.9%
viability, T/C [12]: 50.3%
viability, T/C [39]: 57.2%
viability, T/C [40]: 51.3%
viability, T/C [15]: 34.2%
viability, T/C [16]: 33.1%
viability, T/C [17]: 35.3%
viability, T/C [18]: 30.1%
viability, T/C [41]: 30%
viability, T/C [42]: 26.4%
viability, T/C [21]: 20.2%
viability, T/C [22]: 19.9%
viability, T/C [23]: 19.1%
viability, T/C [24]: 17.2%
viability, T/C [43]: 16.5%
viability, T/C [44]: 16.1%
viability, T/C [27]: 17.2%
viability, T/C [28]: 17.7%
viability, T/C [29]: 18.8%
viability, T/C [30]: 15%
viability, T/C [45]: 16.1%
viability, T/C [46]: 11%
viability, T/C [33]: 18.3%
viability, T/C [34]: 17.4%
viability, T/C [35]: 15.3%
viability, T/C [36]: 14.8%
viability, T/C [47]: 14.3%
viability, T/C [48]: 8.75%

CC(Nc1ccc2c(c1)OCCn1cc(N3C(=O)OCC3C(F)F)nc1-2)C(N)=O (stereo not drawn) + CCn1c(-c2cc(N3CCN(C)CC3)cnc2C(C)OC)c2c3cc(ccc31)-c1csc(n1)CC(NC(=O)C1CC1C)C(=O)N1CCCC(N1)C(=O)OCC(C)(C)C2
IC50 (second compound 0.000949 µM): > 10000 nM
IC50 (second compound 0.003 µM): 195 nM
IC50 (second compound 0.00949 µM): < 31.6 nM
IC50 (second compound 0.03 µM): < 31.6 nM
IC50 (second compound 0.0949 µM): < 31.6 nM
IC50 (second compound 0.3 µM): < 31.6 nM
viability, T/C [3]: 75.1%
viability, T/C [4]: 73.5%
viability, T/C [5]: 76%
viability, T/C [6]: 62.9%
viability, T/C [37]: 73.8%
viability, T/C [38]: 78.5%
viability, T/C [9]: 53.1%
viability, T/C [10]: 54.9%
viability, T/C [11]: 46.4%
viability, T/C [12]: 47.5%
viability, T/C [39]: 45.1%
viability, T/C [40]: 51.8%
viability, T/C [15]: 29.8%
viability, T/C [16]: 31.2%
viability, T/C [17]: 27.9%
viability, T/C [18]: 24.9%
viability, T/C [41]: 24.1%
viability, T/C [42]: 25.3%
viability, T/C [21]: 19.8%
viability, T/C [22]: 18.4%
viability, T/C [23]: 15%
viability, T/C [24]: 15.6%
viability, T/C [43]: 16.2%
viability, T/C [44]: 13.1%
viability, T/C [27]: 15.4%
viability, T/C [28]: 15.1%
viability, T/C [29]: 11.4%
viability, T/C [30]: 11.5%
viability, T/C [45]: 13.5%
viability, T/C [46]: 11.9%
viability, T/C [33]: 15.6%
viability, T/C [34]: 13%
viability, T/C [35]: 10.1%
viability, T/C [36]: 11.8%
viability, T/C [47]: 11.9%
viability, T/C [48]: 11.8%

O=C(c1ccc(F)c(F)c1Nc1ccc(I)cc1F)N1CC(O)([C@@H]2CCCCN2)C1 + CCn1c(-c2cc(N3CCN(C)CC3)cnc2C(C)OC)c2c3cc(ccc31)-c1csc(n1)CC(NC(=O)C1CC1C)C(=O)N1CCCC(N1)C(=O)OCC(C)(C)C2
IC50 (second compound 0.000949 µM): 24.1 nM
IC50 (second compound 0.003 µM): 5.51 nM
IC50 (second compound 0.00949 µM): < 3.16 nM
IC50 (second compound 0.03 µM): < 3.16 nM
IC50 (second compound 0.0949 µM): < 3.16 nM
IC50 (second compound 0.3 µM): < 3.16 nM
viability, T/C [1]: 75.1%
viability, T/C [2]: 64.1%
viability, T/C [3]: 46.5%
viability, T/C [4]: 23.2%
viability, T/C [5]: 13%
viability, T/C [6]: 1.01%
viability, T/C [7]: 59.4%
viability, T/C [8]: 37.5%
viability, T/C [9]: 32.3%
viability, T/C [10]: 17.9%
viability, T/C [11]: 6.64%
viability, T/C [12]: 0.53%
viability, T/C [13]: 28.2%
viability, T/C [14]: 24.9%
viability, T/C [15]: 13.7%
viability, T/C [16]: 8.14%
viability, T/C [17]: 1.43%
viability, T/C [18]: 0.48%
viability, T/C [19]: 12.3%
viability, T/C [20]: 9.75%
viability, T/C [21]: 3.83%
viability, T/C [22]: 1.67%
viability, T/C [23]: 0.8%
viability, T/C [24]: 0.47%
viability, T/C [25]: 5.71%
viability, T/C [26]: 2.85%
viability, T/C [27]: 2.06%
viability, T/C [28]: 1.08%
viability, T/C [29]: 0.77%
viability, T/C [30]: 0.49%
viability, T/C [31]: 6.59%
viability, T/C [32]: 1.81%
viability, T/C [33]: 1.42%
viability, T/C [34]: 0.75%
viability, T/C [35]: 0.63%
viability, T/C [36]: 0.61%
